Assay results published in patent publication EP0236913A2, “Aryl-azolylmethyl-benzocyclo-alkene derivatives, process for their preparation and their use” (HOECHST AKTIENGESELLSCHAFT, priority 1986, dated 1987).
In brackets after ≈: the same amount, converted by molar mass.

Legend:
[1] = test system: Weizenmehltau (Erysiphe graminis); test: wheat powdery mildew, curative spray test on wheat plants (Versuch I); format: in vivo; conditions: untreated infected control = 100 %
Description: Weizenpflanzen werden im 3-Blattstadium mit Konidien des Weizenmehltaus (Erysiphe graminis) stark inokuliert und in einem Gewächshaus bei 20°C und einer relativen Luftfeuchte von 90 - 95% aufgestellt. 3 Tage nach Inokulation werden die Pflanzen mit den in Tabelle 6 aufgeführten Verbindungen in den angegebenen Wirkstoffkonzentrationen gleichmäßig benetzt. Nach einer Inkubationszeit von 10 Tagen werden die Pflanzen auf den Befall mit Weizenmehltau untersucht. Der Befallsgrad wird ausgedrückt in % befallener Blattfläche, bezogen auf unbehandelte, infizierte Kontrollpflanzen (= 100% Befall). Das Ergebnis ist in der Tabelle 6 zusammengefaßt.

[2] = test system: Aspergillus niger (500/284); test: in vitro antimycotic serial dilution test (microtitration technique); format: cell-based; conditions: read-out: Minimale Hemmkonzentration
From the text: (§1) Die in vitro-Prüfungen auf antimykotische Wirkung wurden im Reihenverdünnungstest an Hauptpilzen (Trichophyton mentagrophytes, Trichophyton rubrum, Microsporum canis), Hefepilzen (Candida Albicans) und Schimmelpilzen (Aspergillus niger) durchgeführt (Material und Methodik: Mikrotitrationstechnik veröffentlicht in Mykosen 27,14 (1984). Wie aus Tabelle 4 ersichtlich, zeigen bei diesen in vitro-Prüfungen die erfindungsgemäßen Verbindungen gute antimykotische Eigenschaften,die denjenigen der Referenzsubstand Clotrimazol überlegen sind.

[3] = test system: Microsporum canis (150/120); test: as above; format: cell-based; conditions: read-out: Minimale Hemmkonzentration
From the text: as §1

[4] = test system: Trichophyton mentagrophytes (100/25); test: as above; format: cell-based; conditions: read-out: Minimale Hemmkonzentration
From the text: as §1

[5] = test system: Trichophyton rubrum (101/58); test: as above; format: cell-based; conditions: read-out: Minimale Hemmkonzentration
From the text: as §1

[6] = test system: Candida albicans (200/175); test: as above; format: cell-based; conditions: read-out: Minimale Hemmkonzentration
[7] = test system: Trichophyton mentagrophytes; test: local in vivo efficacy in experimentally infected guinea pigs, dermal treatment; parameters: species or system Meerschweinchen (Stamm Pirbright white); conditions: Dermal 5 x 0.1 %; for Mykosen (Durchmesser in mm) Präparat + Vehikel x2: from day 3 after infection, mean, n = 6 measurements; for Mykosen Differenz (%): difference relative to Clotrimazol = 100; for Mykosen (Durchmesser in mm) Differenz x1 - x2: vehicle control side minus treated side
From the text: Als Beispiel für die hohe lokale in vivo Wirksamkeit der erfindungsgemäßen Verbindungen werden Behandlungsergebnisse an experimentell mit Trichophyton mentagrophytes infizierten Labortieren angeführt.
Zur Feststellung der lokalen Wirksamkeit wurden jeweils zwei 450-500 g schwere Meerschweinchen (Stamm Pirbright white) mit 1,5 x 10^4 Konidien/Tier in die Epidermis, verteilt auf 6 Infektionspunkte, infiziert.
Die Behandlung der Tiere erfolgte dermal ab dem 3. Tag nach der Infektion an 5 aufeinanderfolgenden Tagen durch Aufbringen einer 0,1 %igen Präparatlösung auf 3 Infektionsstellen einer Rückenseite. Die andere Rückenseite wurde mit Vehikel ohne Präparat auf gleiche Weise behandelt.
Neben den mit den erfindungsgemäßen Substanzen behandelten Tieren wurden zwei Tiere mit der Referenzsubstanz Clotrimazol behandelt, zwei Tiere blieben nach der Infektion unbehandelt.

[8] = test system: Pentetrazol-induzierte Krämpfe; test: antagonism of pentetrazol-induced convulsions (PTZ); format: in vivo, Maus; conditions: mouse; pentetrazol 125 mg/kg s.c. 1 h after oral test substance; tonic extensor convulsions; read-out: ED50 (mg/kg p.o.) Ptz
Description: Antagonismus gegen Pentetrazol-induzierte Krämpfe (Maus) (PTZ)
Methode: • Gruppen von 10 männlichen Mäusen (Stamm: NMRI, SPF-71, KF) im Gewicht von 18-22 g werden in diesem Versuch verwendet. Die zu prüfenden Substanzen werden in einer 1 %igen Aufschwemmung von Tylose (Methyl-hydroxy-ethyl-cellulose) in Wasser suspendiert und per Schlundsonde in einem Volumen von 10 ml/kg Körpergewicht oral verabreicht. Die Kontrollgruppe erhält ein entsprechendes Volumen Tylosesuspension ohne Prüfsubstanz.
Pentetrazol (Cardiazol (R)) wird in wäßriger Lösung in einer Dosis von 125 mg/kg Körpergewicht 1 Stunde nach Verabreichung der Prüfsubstanzen subcutan injiziert. Diese Dosis erzeugt bei 90-100 % der Kontrolltiere innerhalb der Beobachtungszeit von 60 Minuten nach der Injektion tonische Extensorkrämpfe der hinteren Extremitäten. Als Schutzwirkung der Prüfsubstanz wird gewertet, wenn die Anzahl der krampfenden Tiere gegenüber der Kontrollgruppe vermindert ist.
Bei vorhandener Schutzwirkung der Prüfsubstanz wird eine mittlere effektive Dosis (ED-50) grafisch (Litchfield and Wilcoxon) oder rechnerisch(Probitanalyse) ermittelt.
Literatur: E.A. SWINYARD, J.Pharmacol.Exp. Ther. 106, (1952), 319-330

[9] = test system: Elektroschock-induzierte Krämpfe; test: antagonism of electroshock-induced convulsions (ECS); format: in vivo, Maus; conditions: mouse; corneal electroshock 1 h after oral test substance; tonic extensor convulsions; read-out: ED50 (mg/kg p.o.) ECS
Description: Antagonismus gegen Elektroschock-induzierte Krämpfe (Maus) (ECS)
Methode: • Gruppen von 6 männlichen Mäusen (Stamm: NMRI, SPF-71, KF) im Gewicht von 18-22 g werden in diesem Versuch verwendet. Die zu prüfenden Substanzen werden in einer 1 %igen Aufschwemmung von Tylose (Methyl-hydroxy-ethyl-cellulose) in Wasser suspendiert und per Schlundsonde in einem Volumen von 10 ml/kg Körpergewicht oral verabreicht. Die Kontrollgruppe erhält ein entsprechendes Volumen Tylosesuspension ohne Prüfsubstanz.
Eine Stunde nach Prüfsubstanzgabe wird den.Tieren über Cornea-Elektroden ein Elektroschock verabreicht (Stromstärke 12-22 mA, Dauer 0.2 sec. 50 Hz), nachdem vorher an einer zweiten Kontrollgruppe die Stromstärke ermittelt worden war, die bei 100 % der Tiere einen tonischen Extensorkrampf der hinteren Extremitäten hervorruft.
Die Anzahl der durch die Prüfsubstanz vor einem Extensorkrampf geschützten Tiere dient als Maß der antikonvulsiven Wirkung in diesem Test.
Bei vorhandener Schutzwirkung der Prüfsubstanz wird eine mittlere effektive Dosis (ED-50) grafisch (Litchfield and Wilcoxon) oder rechnerisch (Probitanalyse) ermittelt.
Literatur: E.A. SWINYARD, In: Experimental Models of Epilepsy, Raven Press, New York, 1972, p. 433-458.

[10] = acute oral toxicity (LD-50); conditions: in vivo, per os
[11] = test system: Pseudo-cercosporella herpotrichoides; test: agar plate test with Pseudocercosporella cultures (Versuch V); format: cell-based; conditions: 144 h, 6 days after inoculation, read-out: Wirkungsgrad gegenüber Pseudo-cercosporella herpotrichoides in %; for inhibition of growth at 125 µg/mL: 125 ppm Wirkstoff in Biomalzagar; for inhibition of growth at 250 µg/mL: 250 ppm Wirkstoff in Biomalzagar; for inhibition of growth at 500 µg/mL: 500 ppm Wirkstoff in Biomalzagar
Description: Biomalzagar wurde mit den beanspruchten Verbindungen in den in Tabelle 10 angegebenen Konzentrationen versetzt. Nach dem Erstarren des Agars erfolgte die Beimpfung mit Pseudocercosporella-Kulturen. Jeweils 20 µl einer Sporensuspension wurden auf das Zentrum der Agarplatte aufgebracht. Die Versuche wurden 6 Tage nach Beimpfung ausgewertet. Der Wirkungsgrad der Wirkstoffe wird ausgedrückt in % im Vergleich zur Kontrolle (Agarmedium ohne Wirkstoff).

[12] = 60 mg Wirkstoff/Liter Spritzbrühe
[13] = 125 mg Wirkstoff/Liter Spritzbrühe
[14] = 250 mg Wirkstoff/Liter Spritzbrühe
[15] = 500 mg Wirkstoff/Liter Spritzbrühe

Row | Structure (SMILES) | mit Weizenmehltau befallene Blattfläche in % [1, 12] | mit Weizenmehltau befallene Blattfläche in % [1, 13] | mit Weizenmehltau befallene Blattfläche in % [1, 14] | mit Weizenmehltau befallene Blattfläche in % [1, 15] | MIC [2] | MIC [3] | MIC [4] | MIC [5] | MIC [6] | Mykosen (Durchmesser in mm) Präparat + Vehikel x2 [7] | Mykosen Differenz (%) [7] | Mykosen (Durchmesser in mm) Differenz x1 - x2 [7] | ED50 [8] | ED50 [9] | LD50 [10] | inhibition of growth at 125 µg/mL [11] | inhibition of growth at 250 µg/mL [11] | inhibition of growth at 500 µg/mL [11]
1 | CC1(C)CC(O)(Cn2ccnc2)c2ccccc21 (centres unmarked) [Beispiel 36, 1-(1H-Imidazol-1-ylmethyl)-3,3-dimethyl-indan-1-ol] | 0-3% | 0-3% | 0% | 0% |  |  |  |  |  |  |  |  |  |  |  |  |  | 
2 | Clc1ccccc1C(c1ccccc1)(c1ccccc1)n1ccnc1 [Clotrimazol, reference compound] |  |  |  |  | 1.95 µg/mL (≈ 5.65 µM) | 0.97 µg/mL (≈ 2.81 µM) | 0.97 µg/mL (≈ 2.81 µM) | 0.97 µg/mL (≈ 2.81 µM) | 3.9 µg/mL (≈ 11.3 µM) | 7.6 mm | (100) % | 7 mm |  |  |  |  |  | 
3 | OC1(Cn2ccnc2)CCc2ccccc21 (centres unmarked) [Verbindung 1 (Tab. 3), 1-Hydroxy-1-(1H-imidazol-1-ylmethyl)-indan] |  |  |  |  |  |  |  |  |  |  |  |  | 70 mg/kg | 18.2 mg/kg | 300 mg/kg |  |  | 
4 | OC1(Cn2ccnc2)CCc2cc(Oc3ccccc3)ccc21 (centres unmarked) [Verbindung 11 (Tab. 3)] |  |  |  |  |  |  |  |  |  |  |  |  | 9.3 mg/kg |  |  | 100% | 100% | 100%
5 | c1ccc(-c2ccc(C3(Cn4ccnc4)CCc4ccccc43)cc2)cc1 (centres unmarked) [Verbindung 13 (Tab. 1)] |  |  |  |  |  |  |  |  |  |  |  |  | 16 mg/kg | 17.3 mg/kg | > 300 mg/kg | 100% | 100% | 100%
6 | Clc1ccc(C2(Cn3ccnc3)CCCc3ccccc32)cc1 (centres unmarked) [Verbindung 20 (Tab. 1)] | 3% | 0-3% | 0% | 0% | 0.97 µg/mL (≈ 3 µM) | 0.97 µg/mL (≈ 3 µM) | 0.97 µg/mL (≈ 3 µM) | 0.97 µg/mL (≈ 3 µM) | 1.95 µg/mL (≈ 6.04 µM) | 4.3 mm | (138.5) % | 9.7 mm |  |  |  |  |  | 
7 | Fc1ccc(C2(Cn3ccnc3)CCCc3ccccc32)c(F)c1 (centres unmarked) [Verbindung 32 (Tab. 1)] |  |  |  |  |  |  |  |  |  |  |  |  | 17.2 mg/kg | 60 mg/kg |  | 100% | 100% | 100%
8 | Fc1cc(Cl)ccc1C1(Cn2ccnc2)CCCc2ccccc21 (centres unmarked) [Verbindung 33 (Tab. 1)] |  |  |  |  |  |  |  |  |  |  |  |  | 55 mg/kg | 24.6 mg/kg |  | 100% | 100% | 100%
9 | Cc1ccc(C2(Cn3ccnc3)CCc3ccccc32)cc1C (centres unmarked) [Verbindung 53 (Tab. 1)] |  |  |  |  |  |  |  |  |  |  |  |  | 30 mg/kg | 35.1 mg/kg | > 300 mg/kg | 100% | 100% | 100%
10 | c1ccc(-c2ccc(C3(Cn4ccnc4)CCCc4ccccc43)cc2)cc1 (centres unmarked) [Verbindung 60 (Tab. 1)] |  |  |  |  | 1.95 µg/mL (≈ 5.35 µM) | 0.007 µg/mL (≈ 0.0192 µM) | 0.24 µg/mL (≈ 0.658 µM) | 0.06 µg/mL (≈ 0.165 µM) | 0.48 µg/mL (≈ 1.32 µM) | 4.5 mm | (157.1) % | 11 mm |  |  |  | 100% | 100% | 100%
11 | c1ccc(Oc2ccc(C3(Cn4ccnc4)CCc4ccccc43)cc2)cc1 (centres unmarked) [Verbindung 67 (Tab. 1)] |  |  |  |  | 1.95 µg/mL (≈ 5.32 µM) | 0.06 µg/mL (≈ 0.164 µM) | 0.97 µg/mL (≈ 2.65 µM) | 0.97 µg/mL (≈ 2.65 µM) | 1.95 µg/mL (≈ 5.32 µM) | 3.2 mm | (107.1) % | 7.5 mm |  |  |  |  |  | 
12 | c1ccc(Oc2ccc(C3(Cn4ccnc4)CCCc4ccccc43)cc2)cc1 (centres unmarked) [Verbindung 70 (Tab. 1)] |  |  |  |  | 0.97 µg/mL (≈ 2.55 µM) | 0.06 µg/mL (≈ 0.158 µM) | 0.48 µg/mL (≈ 1.26 µM) | 0.12 µg/mL (≈ 0.315 µM) | 0.97 µg/mL (≈ 2.55 µM) | 3 mm | (182.8) % | 12.8 mm |  |  |  |  |  | 
